Reference: patent publication US20060069132A1, “Azolecarboxamide herbicides” (priority 2004, published 2006)

What was measured:
barnyardgrass [1] = assay: Test B flooded paddy test; type: in vivo, Echinochloa crus-galli; conditions: 1000 g ai/ha, visual rating, scale 0 to 100 (0 no effect, 100 complete control), 13 to 15 days
Method in brief: (§1)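 Postemergence plants were sprayed with formulated test chemicals at 2 to 18 cm height (1- to 4-leaf stage); paddy species were grown to the 2-leaf stage. After 13 to 15 days in a greenhouse, injury was rated visually against untreated controls on a 0–100 scale (0 = no effect, 100 = complete control).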

rice = assay: Test B flooded paddy test; type: in vivo, Oryza sativa; conditions: 1000 g ai/ha, visual rating, scale 0 to 100 (0 no effect, 100 complete control), 13 to 15 days
Method in brief: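 Paddy species grown to the 2-leaf stage under flooding; blackgrass sprayed postemergence at 2–18 cm (1- to 4-leaf stage). Plants kept in a greenhouse for 13 to 15 days, then visually rated against controls on 0 (no effect) to 100 (complete control).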

cocklebur = assay: Test B pre-/postemergence herbicide test; type: in vivo, Xanthium strumarium
Method in brief: (§2)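 Seeds were planted and treated preemergence with compounds formulated in a non-phytotoxic solvent mixture containing surfactant, while plants at the 1- to 4-leaf stage (2 to 18 cm) received postemergence sprays. Flooded paddy plants were grown to the 2-leaf stage. After 13 to 15 days in a greenhouse, injury was visually rated 0–100 against untreated controls.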

velvetleaf = assay: Test B pre-/postemergence herbicide test; type: in vivo, Abutilon theophrasti
Method in brief: (§3)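 Test chemicals in a non-phytotoxic solvent mixture with surfactant were applied preemergence to seeded species and postemergence to plants 2-18 cm tall (1- to 4-leaf stage); rice and barnyardgrass were also tested in a flooded paddy at the 2-leaf stage. Visual rating versus controls after 13-15 days in greenhouse, scale 0 (no effect) to 100 (complete control).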

giant foxtail = assay: Test B pre-/postemergence herbicide test; type: in vivo, Setaria faberi
Method in brief: as §3

corn = assay: Test B pre-/postemergence herbicide test; type: in vivo, Zea mays
Method in brief: as §3

Surinam grass = assay: Test B pre-/postemergence herbicide test; type: in vivo, Urochloa decumbens
Method in brief: as §3

morningglory = assay: Test B pre-/postemergence herbicide test; type: in vivo, Ipomoea coccinea
Method in brief: as §2

barnyardgrass [2] = assay: Test B pre-/postemergence herbicide test; type: in vivo, Echinochloa crus-galli
Method in brief: as §2

wheat = assay: Test B postemergence herbicide test; type: in vivo, Triticum aestivum; parameters: key to Wheat plant response rating: 0 = no effect, 100 = complete control
Method in brief: (§4)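 Greenhouse test; postemergence application to plants at 1–4 leaves (2–18 cm); paddy species at 2 leaves; evaluated visually vs controls at 13–15 days; scale 0–100 (100 = complete control).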

wild oat = assay: Test B postemergence herbicide test; type: in vivo, Avena fatua
Method in brief: as §4

large crabgrass = assay: Test B pre-/postemergence herbicide test; type: in vivo, Digitaria sanguinalis
Method in brief: as §3

pigweed = assay: Test B pre-/postemergence herbicide test; type: in vivo, Amaranthus retroflexus
Method in brief: as §3

[3] = test system: small flower umbrella sedge; assay: Test B flooded paddy test; type: in vivo, Cyperus difformis; conditions: 1000 g ai/ha, visual rating, scale 0 to 100 (0 no effect, 100 complete control), 13 to 15 days
Method in brief: as §1

blackgrass = assay: Test B postemergence herbicide test; type: in vivo, Alopecurus myosuroides
Method in brief: as §1

ducksalad = assay: Test B flooded paddy test; type: in vivo, Heteranthera limosa; conditions: 1000 g ai/ha, visual rating, scale 0 to 100 (0 no effect, 100 complete control), 13 to 15 days
Protocol: At the same time, plants selected from these crop and weed species and also blackgrass (Alopecurus myosuroides Huds.), wheat (Triticum aestivum L.) and wild oat (Avena fatua L.) were treated with postemergence applications of test chemicals formulated in the same manner. Plants ranged in height from 2 to 18 cm (1- to 4-leaf stage) for postemergence treatments. Plant species in the flooded paddy test consisted of rice (Oryza sativa L.), small flower umbrella sedge (Cyperus difformis L.), ducksalad (Heteranthera limosa (Sw.) Willd.) and barnyardgrass (Echinochloa crus-galli (L.) Beauv.) grown to the 2-leaf stage for testing. Treated plants and controls were maintained in a greenhouse for 13 to 15 days, after which time all species were compared to controls and visually evaluated. Plant response ratings, summarized in Table B, are based on a scale of 0 to 100 where 0 is no effect and 100 is complete control. A dash (-) response means no test result.

lambsquarters = assay: Test B pre-/postemergence herbicide test; type: in vivo, Chenopodium album
Method in brief: as §3

[4] = Postemergence, 125 g ai/ha, scale 0 (no effect) to 100 (complete control)
[5] = Postemergence, 500 g ai/ha, visual rating after 13 to 15 days, scale 0 (no effect) to 100 (complete control)
[6] = Preemergence, 500 g ai/ha, scale 0 to 100
[7] = preemergence, 125 g ai/ha, 0 to 100 scale, 0 is no effect, 100 is complete control
[8] = Postemergence, 250 g ai/ha, scale 0 (no effect) to 100 (complete control)
[9] = postemergence, 62 g ai/ha, scale 0 to 100
[10] = 250 g ai/ha, scale 0 to 100, 0 no effect, 100 complete control, preemergence

## C=Cn1nc(C(C)(C)C)cc1C(=O)Nc1cccc(C(=O)NCC(F)(F)F)c1 [Compound 37]
Barnyardgrass [1]
  Barnyardgrass plant response rating: 30
rice
  Rice plant response rating: 50
cocklebur; [4]
  Cocklebur plant response rating: 60
cocklebur; [5]
  Plant response rating, Cocklebur: 80
cocklebur; [6]
  Cocklebur plant response rating: 0
velvetleaf; [5]
  Plant response rating, Velvetleaf: 40
velvetleaf; [6]
  Velvetleaf plant response rating: 20
velvetleaf; [7]
  Plant response rating, Velvetleaf: 20
Giant foxtail; [4]
  Foxtail, Giant plant response rating: 20
Giant foxtail; [5]
  Plant response rating, Foxtail, Giant: 20
Giant foxtail; [6]
  Foxtail, Giant plant response rating: 60
Giant foxtail; [7]
  Plant response rating, Foxtail, Giant: 20
corn; [6]
  Corn plant response rating: 10
Surinam grass; [5]
  Plant response rating, Surinam Grass: 20
Surinam grass; [6]
  Surinam Grass plant response rating: 40
Surinam grass; [7]
  Plant response rating, Surinam Grass: 10
morningglory; [6]
  Morningglory plant response rating: 0
morningglory; [7]
  Plant response rating, Morningglory: 0
Barnyardgrass [2]; [4]
  Barnyardgrass plant response rating: 20
Barnyardgrass [2]; [5]
  Plant response rating, Barnyardgrass: 20
Barnyardgrass [2]; [6]
  Barnyardgrass plant response rating: 60
wheat; [5]
  Plant response rating, Wheat: 20
Wild oat; [4]
  Oat, Wild plant response rating: 10
Wild oat; [5]
  Plant response rating, Oat, Wild: 20
Large crabgrass; [4]
  Crabgrass, Large plant response rating: 10
Large crabgrass; [5]
  Plant response rating, Crabgrass, Large: 20
Large crabgrass; [6]
  Crabgrass, Large plant response rating: 90
pigweed; [5]
  Plant response rating, Pigweed: 90
pigweed; [6]
  Pigweed plant response rating: 100
pigweed; [7]
  Plant response rating, Pigweed: 80
[3]
  Sedge, Umbrella plant response rating: 90
blackgrass; [4]
  Blackgrass plant response rating: 10
blackgrass; [5]
  Plant response rating, Blackgrass: 10
ducksalad
  Ducksalad plant response rating: 60
lambsquarters; [4]
  Lambsquarters plant response rating: 80
lambsquarters; [5]
  Plant response rating, Lambsquarters: 90
lambsquarters; [6]
  Lambsquarters plant response rating: 100
lambsquarters; [7]
  Plant response rating, Lambsquarters: 10

## CCOC(=O)c1ccc(F)c(NC(=O)c2cc(C(C)C)nn2CC)c1 [Compound 73]
Barnyardgrass [1]
  Barnyardgrass plant response rating: 30
rice
  Rice plant response rating: 50
cocklebur; [8]
  Cocklebur plant response rating: 20
cocklebur; [9]
  Cocklebur plant response rating: 20
velvetleaf; [8]
  Velvetleaf plant response rating: 50
velvetleaf; [9]
  Velvetleaf plant response rating: 30
Giant foxtail; [8]
  Foxtail, Giant plant response rating: 30
Giant foxtail; [9]
  Foxtail, Giant plant response rating: 10
corn; [8]
  Corn plant response rating: 30
corn; [9]
  Corn plant response rating: 0
Surinam grass; [8]
  Surinam Grass plant response rating: 10
Surinam grass; [9]
  Surinam Grass plant response rating: 10
morningglory; [8]
  Morningglory plant response rating: 10
morningglory; [9]
  Morningglory plant response rating: 10
Barnyardgrass [2]; [8]
  Barnyardgrass plant response rating: 10
Barnyardgrass [2]; [9]
  Barnyardgrass plant response rating: 0
wheat; [10]
  Wheat plant response rating: 20
wheat; [8]
  Wheat plant response rating: 30
wheat; [9]
  Wheat plant response rating: 20
Wild oat; [8]
  Oat, Wild plant response rating: 40
Wild oat; [9]
  Oat, Wild plant response rating: 20
Large crabgrass; [8]
  Crabgrass, Large plant response rating: 10
Large crabgrass; [9]
  Crabgrass, Large plant response rating: 0
pigweed; [8]
  Pigweed plant response rating: 20
pigweed; [9]
  Pigweed plant response rating: 10
[3]
  Sedge, Umbrella plant response rating: 80
blackgrass; [8]
  Blackgrass plant response rating: 30
blackgrass; [9]
  Blackgrass plant response rating: 30
ducksalad
  Ducksalad plant response rating: 10
lambsquarters; [8]
  Lambsquarters plant response rating: 10
lambsquarters; [9]
  Lambsquarters plant response rating: 0

## CCOC(=O)c1ccc(F)c(NC(=O)c2cc(C3CC3)nn2CC)c1 [Compound 74]
Barnyardgrass [1]
  Barnyardgrass plant response rating: 0
rice
  Rice plant response rating: 0
cocklebur; [8]
  Cocklebur plant response rating: 0
cocklebur; [9]
  Cocklebur plant response rating: 0
velvetleaf; [8]
  Velvetleaf plant response rating: 30
velvetleaf; [9]
  Velvetleaf plant response rating: 0
Giant foxtail; [8]
  Foxtail, Giant plant response rating: 10
Giant foxtail; [9]
  Foxtail, Giant plant response rating: 10
corn; [8]
  Corn plant response rating: 0
corn; [9]
  Corn plant response rating: 0
Surinam grass; [8]
  Surinam Grass plant response rating: 10
Surinam grass; [9]
  Surinam Grass plant response rating: 0
morningglory; [8]
  Morningglory plant response rating: 10
morningglory; [9]
  Morningglory plant response rating: 0
Barnyardgrass [2]; [8]
  Barnyardgrass plant response rating: 0
Barnyardgrass [2]; [9]
  Barnyardgrass plant response rating: 0
wheat; [10]
  Wheat plant response rating: 0
wheat; [8]
  Wheat plant response rating: 20
wheat; [9]
  Wheat plant response rating: 20
Wild oat; [8]
  Oat, Wild plant response rating: 40
Wild oat; [9]
  Oat, Wild plant response rating: 30
Large crabgrass; [8]
  Crabgrass, Large plant response rating: 10
Large crabgrass; [9]
  Crabgrass, Large plant response rating: 0
pigweed; [8]
  Pigweed plant response rating: 20
pigweed; [9]
  Pigweed plant response rating: 20
[3]
  Sedge, Umbrella plant response rating: 70
blackgrass; [8]
  Blackgrass plant response rating: 50
blackgrass; [9]
  Blackgrass plant response rating: 30
ducksalad
  Ducksalad plant response rating: 0
lambsquarters; [8]
  Lambsquarters plant response rating: 10
lambsquarters; [9]
  Lambsquarters plant response rating: 0
